Experiments:
HaCaT cells [1] = assay: MTT cytotoxicity assay, HaCaT (non-cancer); type: cell-based, human; details: 48 h
A549 cells [2] = assay: MTT cytotoxicity assay, A549; type: cell-based, human; details: 48 h
HaCaT cells [3] = assay: MTT cytotoxicity assay, HaCaT (non-cancer); type: cell-based, human
Protocol: (§1) Moreover, to investigate the activity of synthesized complexes as potential anticancer agents, their cytotoxicity toward a series of human cancer cell lines and a non-cancer cell line (HaCaT) was evaluated using the MTT assay. […] In addition, we also determined the cytotoxic activity of free ligands toward selected cancer cells. […] However, this effect depends on the cell line. […] The best values of cytotoxic activity of compounds have been obtained after 72 h of cell incubation. Additionally, synthesized complexes had high sensitivity to A549 cells, so this cell line was selected as the research subject for antitumor activity.
(§2) MCF7 cell line (human breast adenocarcinoma, morphology: epithelial-like, ATCC: HTB-22) and A549 cell line (human lung adenocarcinoma, morphology: epithelial, ATCC: CCL-185); HaCaT (human keratinocyte) were cultured in Dulbecco’s Modified Eagle’s Medium (DMEM, Corning, Poland) with phenol red, supplemented with 10% fetal bovine serum (FBS) and with 1% streptomycin/penicillin. Du-145 cell line (human prostate carcinoma); derived from metastatic site: brain was cultured in minimum essential medium (MEM, Corning) with only 10% fetal bovine serum (FBS). Cultures were incubated at 37 °C under a humidified atmosphere containing 5% CO2. Cells were passaged using a solution containing 0.05% trypsin and 0.5 mM EDTA. All media and other ingredients were purchased from ALAB, Poland.
(§3) Since most of the studied compounds are insoluble in aqueous media (Dulbecco’s Modified Eagle’s Medium or minimum essential medium (MEM, Corning), therefore, they needed to be pre-dissolved in DMSO for biological tests. DMSO concentration was kept below 1% in each tested concentration of each compound. Cytotoxicity was assessed by MTT assay performed according to the protocols described previously in the following experimental approaches: 6 h + 24 h, 24 h + 24 h, and 72 h + 24 h. In brief, 5×10^3 per well (0.2 mL) in the two first approaches, while 1×10^4 cells in the case of longer incubation time were seeded in 96-well flat-bottom microtiter plate, were incubated with the tested complexes at various ranges of concentrations. After an appropriate incubation time of 6, 24, or 72 h, the cells were washed thee time with PBS and fresh medium was applied for a further 24 h in each approach. Various compound concentrations (dilutions in proper medium supplemented with 1% FBS) were tested in five replicates and repeated at least three times. Determined values of IC50 (concentration of a drug required to inhibit the growth of 50% of the cells) are given as mean + S.D. (Standard Deviation). IC50 values were determined, from the plots of cell viability in the presence of various concentrations of each compound by matching dose–response curves and using the Origin 9.0 software. Furthermore, post-treatment survival assessment of the treated cells was analyzed under an inverted fluorescence microscope (Olympus IC51, Japan) with an excitation filter 470/20 nm. For this, cells were stained with two versatile fluorescence dyes: fluorescein diacetate (FDA, 5 mg/mL) and propidium iodide (PI, 5 mg/mL) in standard conditions in the dark for 20 min. Before visualization, dyes were removed and cells were washed with PBS twice.

Solubility (qualitative) = type: physicochemical; details: H2O:DMSO (100:1)
A549 cells [4] = assay: MTT cytotoxicity assay, A549; type: cell-based, human
Protocol: as §1, §2, §3

PANC-1 cells [5] = assay: MTT cytotoxicity assay, PANC-1; type: cell-based, human; details: 48 h
PANC-1 cells [6] = assay: MTT cytotoxicity assay, PANC-1; type: cell-based, human
Protocol: as §1, §3

[7] = Partition coefficient, shake-flask method (n-octanol/PBS); type: physicochemical
Protocol: The partition coefficient was determined by the shake-flask method. A small amount of compound was dissolved in 5 mL PBS-saturated n-octanol. The sample was sonicated until all the compound was dissolved. Next, 5 mL of PBS saturated with n-octanol was added and the experiment proceeded as before. The resulting mixture was vortexed for 30 min in horizontal position. The sample was centrifuged for 2 min at 3700 rpm to obtain a phase separation. Next, 2 mL of each phase was taken. The next steps were a 5 min sonication and measurement of absorption spectra of the obtained solutions. The calibration curve was prepared in order to determine the concentration of the tested compounds in individual solutions. It was made using the absorption intensity of the compounds in series dilution solutions in PBS saturated with octanol or octanol saturated with PBS in the concentration range c = 1–100 nM.

A549 cells [8] = assay: Cell cycle analysis by PI staining, flow cytometry; type: cell-based, human; details: synchronized A549, various concentrations, 24 h
Protocol: Antitumor drugs induce cell cycle arrest by inhibiting DNA synthesis and enhancing DNA damage, ultimately leading cancer cells to apoptosis. We further studied the influence of Ir(III) and Ru(II) complexes on cell cycle distribution. Synchronized A549 cells were treated with Ir(III) (1a, 2a) or Ru(II) (1b, 2b) at various concentrations for 24 h. Cells were stained with propidium iodide (PI) and analyzed by flow cytometry. […] An arrest in S-phase implies that the cell cannot duplicate its DNA. Other authors recently reported a similar effect for iridium(III)polypyridyl complexes. Moreover, the percentage of the G2/M population also increases. However, higher doses (>10 μM) of Ir(III) complexes can enhance G0/G1-phase arrest.
The serum starvation protocol was used to synchronize cell cultures. A549 cells were seeded in a 12-well plate in a growth medium with 20% FBS overnight. Then, the cultures were washed by PBS and changed to a serum-free medium. After serum starvation for 24 h, cells were released into the cell cycle by the addition of serum and tested compounds solution for 24 h. The cells were then detached from the plate using trypsin. […] Cells were analyzed with the Guava® easyCyte™ flow cytometer equipped with a 488 nm laser. The obtained data were analyzed using InCyte Software (MerckMillipore, Burlington, MA, USA).

With `CCN(CC)C[P+](c1ccccc1)(c1ccccc1)[Ir-3]([Cl])([Cl])[C]1(C)C(C)=C(C)C(C)=C1C` [1a, Ir(η^5-Cp*)Cl2Ph2PCH2N(CH2CH3)2] the IC50 (HaCaT cells [1]) was 446 ± 26 µM, the IC50 (A549 cells [2]) was 45 ± 4 µM and the IC50 (HaCaT cells [3]; 24 h) was 456 ± 11 µM. For the same molecule, the IC50 (HaCaT cells [3]; 72 h) was 320 ± 19 µM, the “solubility in mixture of H2O:DMSO (100:1)” value (Solubility (qualitative)) was “well soluble” and the IC50 (A549 cells [4]; 24 h) was 68 ± 5 µM. It also gave an IC50 (A549 cells [4]; 72 h) of 12 ± 3 µM, an IC50 (PANC-1 cells [5]) of 204 ± 29 µM and an IC50 (PANC-1 cells [6]; 24 h) of 143 ± 3 µM. The IC50 (PANC-1 cells [6]; 72 h) was 91 ± 13 µM, the “Experimental LogP (logPo/w)” value [7] was 3.03 and the cell cycle perturbations (A549 cells [8]) was “concentration-dependent cell cycle perturbations”.
“Ru(η^6-p-cymene)Cl2Ph2PCH2N(CH2CH3)2 [1b]” showed an IC50 (HaCaT cells [1]) of 545 ± 33 µM, an IC50 (A549 cells [2]) of 425 ± 38 µM and an IC50 (HaCaT cells [3]; 24 h) of 446 ± 20 µM. For the same molecule, the IC50 (HaCaT cells [3]; 72 h) was 303 ± 20 µM, the “solubility in mixture of H2O:DMSO (100:1)” value (Solubility (qualitative)) was “well soluble” and the IC50 (A549 cells [4]; 24 h) was 59 ± 3 µM. It also gave an IC50 (A549 cells [4]; 72 h) of 10 ± 1 µM, an IC50 (PANC-1 cells [5]) of 305 ± 13 µM and an IC50 (PANC-1 cells [6]; 24 h) of 146 ± 5 µM. The IC50 (PANC-1 cells [6]; 72 h) was 128 ± 14 µM, the “Experimental LogP (logPo/w)” value [7] was 3.1 and the cell cycle perturbations (A549 cells [8]) was “concentration-dependent cell cycle perturbations”.
